Data on 99 compounds can be found in ChEMBL document CHEMBL1121833, “Structure--sweetness relationship of L-aspartyl dipeptide analogues. A receptor site topology” (J Med Chem, 1981).

The test can be described thus: Sweet potency as logarithm of sweet potency (log SP) relative to sucrose. The format is functional.

Regarding `COC(=O)[C@H](NC(=O)[C@H](N)CC(=O)O)C(=O)OC(C)(C)C`, the Log SP was found to be 2.03.
The figure for `CCC(C)C(=O)OC[C@H](C)NC(=O)[C@H](N)CC(=O)O` (some centres undefined) is 2.08; for `C[C@@H](CC1CCCCC1)NC(=O)[C@H](N)CC(=O)O` it is 1.57; for `COC(=O)C(NC(=O)[C@@H](N)CC(=O)O)C(=O)OC1CCCC(C)C1` (some centres undefined) it is 3.02.
The result for `CC(=O)OC[C@@H](NC(=O)[C@H](N)CC(=O)O)C(C)C` reads 1.58; that for `CCCC(=O)OC[C@H](CO)NC(=O)[C@H](N)CC(=O)O`, 0.58; that for `CC(C)OC(=O)[C@@H](NC(=O)[C@H](N)CC(=O)O)C(C)C`, 2.15.
For the compound `CCC(=O)OCCNC(=O)[C@H](N)CC(=O)O`, the Log SP came to 0.61.
The figure for `CCC(C)OC(=O)C[C@H](C)NC(=O)[C@H](N)CC(=O)O` (some centres undefined) is 0.6; for `CCCC[C@H](C)NC(=O)[C@H](N)CC(=O)O` it is 1.6; for `COC(=O)CNC(=O)[C@H](N)CC(=O)O` it is 0.68.
`CCCC(=O)OCCNC(=O)[C@H](N)CC(=O)O` registered a Log SP of 0.56.
The result for `COC(=O)[C@H](Cc1ccccc1)NC(=O)[C@@H](N)CC(=O)O` reads 2.11.
The figure for `CCC(CC)OC(=O)CCNC(=O)[C@H](N)CC(=O)O` is 0.6.
The figure for `C[C@@H](COC(=O)C1CCCC1)NC(=O)[C@H](N)CC(=O)O` is 1.7; for `CCCC(=O)OC[C@@H](NC(=O)[C@H](N)CC(=O)O)C(C)C` it is 0.4.
`COC(=O)C(NC(=O)[C@@H](N)CC(=O)O)C(=O)OC1CC2CCC1(C)C2(C)C` (some centres undefined) had a Log SP of 3.16.
The figure for `CC[C@@H](COC(=O)C1CC1)NC(=O)[C@H](N)CC(=O)O` is 1.38; for `CC(C)CC(=O)OC[C@H](CO)NC(=O)[C@H](N)CC(=O)O` it is 1.3; for `CCCCOC(=O)[C@H](NC(=O)[C@@H](N)CC(=O)O)[C@@H](C)O` it is 1.41.
The figure for `CCOC(=O)C(NC(=O)[C@@H](N)CC(=O)O)C(=O)OC1CCCCC1C` (some centres undefined) is 3.09.
The figure for `CC(CNC(=O)[C@H](N)CC(=O)O)C(=O)OC1CCCCC1` (some centres undefined) is 0.94.
`CC(CNC(=O)[C@H](N)CC(=O)O)C(=O)OC(C)(C)C` (some centres undefined): the Log SP turned out to be 0.51.
The result for `CCCCCCC(C)NC(=O)[C@H](N)CC(=O)O` (some centres undefined) reads 1.17; that for `CCC(=O)OC[C@H](CO)NC(=O)[C@H](N)CC(=O)O`, 1.99; that for `CC(C)COC(=O)[C@H](NC(=O)[C@@H](N)CC(=O)O)[C@@H](C)O`, 1.97.
The result for `CCCC(O)[C@H](NC(=O)[C@H](N)CC(=O)O)C(=O)OC` (stereo in doubt; 56) reads 1.16; that for `COC(=O)[C@@H](CSC(C)(C)C)NC(=O)[C@H](N)CC(=O)O`, 2.95; that for `CCOC(=O)[C@H](NC(=O)[C@H](N)CC(=O)O)C(=O)OC1CCCCC1`, 2.68.
The result for `COC(=O)[C@H](NC(=O)[C@@H](N)CC(=O)O)[C@H](C)O` reads 1.26; that for `CC(C)COC(=O)[C@H](NC(=O)[C@@H](N)CC(=O)O)[C@H](C)O`, 1.36.
In turn, `CCCOC(=O)[C@H](C)NC(=O)[C@H](N)CC(=O)O` came in with a Log SP of 2.1.
The result for `CCCOC(=O)[C@H](CC)NC(=O)[C@H](N)CC(=O)O` reads 1.86.
The figure for `COC(=O)[C@@H](Cc1ccc(O)cc1)NC(=O)[C@H](N)CC(=O)O` is 2.15; for `CCC(C)OC(=O)CCNC(=O)[C@H](N)CC(=O)O` (some centres undefined) it is 0.73; for `CC(Cc1ccccc1)NC(=O)[C@H](N)CC(=O)O` (some centres undefined) it is 1.56.
In turn, `CC[C@H](NC(=O)[C@H](N)CC(=O)O)C(=O)OC` registered a Log SP of 1.04.
Turning to `CCCCC[C@H](C)NC(=O)[C@H](N)CC(=O)O` (stereo in doubt; 12), the Log SP worked out at 1.56.
Compound `CC(C)(C)OC(=O)CCNC(=O)[C@H](N)CC(=O)O` had a Log SP of 0.36.
The result for `N[C@H](CC(=O)O)C(=O)N[C@@H](CO)COC(=O)C1CCC1` reads 1.71.
The result for `COC(=O)[C@H](NC(=O)[C@H](N)CC(=O)O)C(=O)OC1CCC(C)CC1` (some centres undefined) reads 1.87; that for `C[C@@H](COC(=O)C(C)(C)C)NC(=O)[C@H](N)CC(=O)O`, 2.28; that for `CC(C)C(=O)OC[C@H](CO)NC(=O)[C@H](N)CC(=O)O`, 1.48.
The result for `CCCOC(=O)[C@H](NC(=O)[C@@H](N)CC(=O)O)[C@H](C)O` reads 1.51; that for `COC(=O)[C@@H](CSC(C)C)NC(=O)[C@H](N)CC(=O)O`, 2.23; that for `COC(=O)C(NC(=O)[C@@H](N)CC(=O)O)C(=O)OC1CCCCC1C` (stereo in doubt; 202), 3.92.
Turning to `N[C@H](CC(=O)O)C(=O)NCCC1CCCCC1`, the Log SP amounted to 0.85.
On to `N[C@H](CC(=O)O)C(=O)NCCOC(=O)C1CCC1`, for which the Log SP was found to be 0.99.
The figure for `CC(=O)OCCNC(=O)[C@H](N)CC(=O)O` is 0.28; for `CCOC(=O)[C@H](NC(=O)[C@@H](N)CC(=O)O)[C@@H](C)O` it is 0.66; for `C[C@@H](COc1ccccc1)NC(=O)[C@H](N)CC(=O)O` it is 1.19.
With `COC(=O)[C@H](C)NC(=O)[C@H](N)CC(=O)O`, the Log SP amounted to 1.2.
Take `N[C@H](CC(=O)O)C(=O)NCCC(=O)OC1CCCC1`: the Log SP is 1.16.
Compound `COC(=O)[C@H](CO)NC(=O)[C@H](N)CC(=O)O` registered a Log SP of 1.49.
`CCCC[C@@H](NC(=O)[C@H](N)CC(=O)O)C(=O)OC`: the Log SP was found to be 1.49.
The figure for `CCOC(=O)C(NC(=O)[C@@H](N)CC(=O)O)C(=O)OCC1C2(C)CCC(C2)C1(C)C` (some centres undefined) is 4.05.
The figure for `CCCCC[C@H](C)NC(=O)[C@H](N)CC(=O)O` (stereo in doubt; 10) is 1.43; for `CC(C)CC[C@H](C)NC(=O)[C@H](N)CC(=O)O` it is 1.85; for `N[C@H](CC(=O)O)C(=O)N[C@@H](CO)C(=O)OC1CCCCC1` it is 1.72.
The result for `CCOC(=O)[C@H](NC(=O)[C@@H](N)CC(=O)O)[C@H](C)O` reads 1.93; that for `CCOC(=O)C(NC(=O)[C@H](N)CC(=O)O)C(=O)OCC`, 1.35; that for `C[C@H](O)[C@@H](NC(=O)[C@@H](N)CC(=O)O)C(=O)OC1CCCCC1`, 1.31.
Turning to `CCOC(=O)[C@H](CO)NC(=O)[C@H](N)CC(=O)O`, the Log SP is 1.92.
The figure for `COC(=O)C[C@H](C)NC(=O)[C@H](N)CC(=O)O` is 0.43; for `CC(C)COC(=O)[C@H](CO)NC(=O)[C@H](N)CC(=O)O` it is 2.21.
`COC(=O)C(NC(=O)[C@@H](N)CC(=O)O)C(=O)OC1CCCCC1C` (stereo in doubt; 203) returned a Log SP of 4.11.
The result for `CCCC(O)[C@H](NC(=O)[C@H](N)CC(=O)O)C(=O)OC` (stereo in doubt; 57) reads 0.75; that for `CC(C)C(=O)OC[C@H](C)NC(=O)[C@H](N)CC(=O)O`, 1.98; that for `CC1CCC1C(=O)OC[C@H](C)NC(=O)[C@H](N)CC(=O)O` (some centres undefined), 2.13.
The figure for `CC(CNC(=O)[C@H](N)CC(=O)O)C(=O)OC1CCCC1` (some centres undefined) is 0.88.
The figure for `CCC(C)C(=O)OC[C@H](CO)NC(=O)[C@H](N)CC(=O)O` (some centres undefined) is 1.21; for `COC(=O)C(NC(=O)[C@@H](N)CC(=O)O)C(C)c1ccccc1` (some centres undefined) it is 0.95.
`CCCCC(=O)OC[C@H](C)NC(=O)[C@H](N)CC(=O)O` had a Log SP of 0.6.
The figure for `N[C@H](CC(=O)O)C(=O)N[C@@H](CO)COC(=O)C1CC1` is 1.96.
The figure for `CCCOC(=O)CNC(=O)[C@H](N)CC(=O)O` is 0.98; for `CCOC(=O)C[C@H](C)NC(=O)[C@H](N)CC(=O)O` (stereo in doubt; 128) it is 1.16; for `CCC[C@@H](NC(=O)[C@H](N)CC(=O)O)C(=O)OC` it is 0.46.
The compound `CCC(=O)OC[C@@H](NC(=O)[C@H](N)CC(=O)O)C(=O)OC` gave a Log SP of 1.53.
The figure for `COC(=O)[C@@H](COC(C)(C)C)NC(=O)[C@H](N)CC(=O)O` is 2.15.
The result for `CCCCCOC(=O)[C@H](C)NC(=O)[C@H](N)CC(=O)O` reads 0.68; that for `CCCC(=O)OC[C@@H](NC(=O)[C@H](N)CC(=O)O)C(=O)OC`, 1.43.
The result for `CC(C)[C@@H](COC(=O)C1CC1)NC(=O)[C@H](N)CC(=O)O` reads 1.22; that for `CCCCCC[C@@H](NC(=O)[C@H](N)CC(=O)O)C(=O)OC`, 2.07; that for `N[C@H](CC(=O)O)C(=O)N[C@@H](CO)COC(=O)C1CCCC1`, 0.92.
With `COC(=O)C(NC(=O)[C@@H](N)CC(=O)O)C(=O)OC1CC(C)CC(C)(C)C1` (some centres undefined), the Log SP worked out at 2.76.
The result for `CC(C)C(=O)OC[C@@H](NC(=O)[C@H](N)CC(=O)O)C(C)C` reads 1.1.
The figure for `CCC[C@@H](COC(C)=O)NC(=O)[C@H](N)CC(=O)O` is 0.66; for `CCOC(=O)[C@H](C)NC(=O)[C@H](N)CC(=O)O` it is 1.75; for `COC(=O)[C@@H](COC(=O)C(C)C)NC(=O)[C@H](N)CC(=O)O` it is 1.65.
The result for `N[C@H](CC(=O)O)C(=O)NCCOC(=O)C1CC1` reads 1.03; that for `CC(C)OC(=O)C[C@H](C)NC(=O)[C@H](N)CC(=O)O`, 0.84.
For `C[C@@H](Cc1ccco1)NC(=O)[C@H](N)CC(=O)O`, the Log SP worked out at 1.16.
In the case of `COC(=O)CC[C@@H](NC(=O)[C@H](N)CC(=O)O)C(=O)OC`, the Log SP stood at 2.
Take `COC(=O)[C@H](NC(=O)[C@H](N)CC(=O)O)C(=O)OC1CCCC1`: the Log SP was 2.92.
The figure for `COC(=O)[C@@H](CCC(C)C)NC(=O)[C@H](N)CC(=O)O` is 2.11; for `CCCOC(=O)[C@H](CCC)NC(=O)[C@H](N)CC(=O)O` it is 1.56.
`COC(=O)C(C)C[C@H](NC(=O)[C@@H](N)CC(=O)O)C(=O)OC` (some centres undefined) registered a Log SP of 1.15.
Take `COC(=O)CCNC(=O)[C@H](N)CC(=O)O`: the Log SP stood at 0.11.
The result for `CC1CC1C(=O)OC[C@H](C)NC(=O)[C@H](N)CC(=O)O` (some centres undefined) reads 1.68.
